Results taken from ChEMBL document CHEMBL4304767 (ACS Med Chem Lett, 2019).

Columns and labels:
[1] = target: T1, Muscarinic acetylcholine receptor M4 (Homo sapiens, UniProt P08173); assay: Agonist activity at human Muscarinic acetylcholine receptor M4 expressed in HEK cells co-expressing Glosensor construct assessed as decrease in isoproterenol-induced cAMP accumulation incubated for 7 mins in presence of isoproterenol by Glosensor cAMP reagent/plate reader based luminescence assay; format: functional, cell-based
T1 sequence (P08173 whole entry): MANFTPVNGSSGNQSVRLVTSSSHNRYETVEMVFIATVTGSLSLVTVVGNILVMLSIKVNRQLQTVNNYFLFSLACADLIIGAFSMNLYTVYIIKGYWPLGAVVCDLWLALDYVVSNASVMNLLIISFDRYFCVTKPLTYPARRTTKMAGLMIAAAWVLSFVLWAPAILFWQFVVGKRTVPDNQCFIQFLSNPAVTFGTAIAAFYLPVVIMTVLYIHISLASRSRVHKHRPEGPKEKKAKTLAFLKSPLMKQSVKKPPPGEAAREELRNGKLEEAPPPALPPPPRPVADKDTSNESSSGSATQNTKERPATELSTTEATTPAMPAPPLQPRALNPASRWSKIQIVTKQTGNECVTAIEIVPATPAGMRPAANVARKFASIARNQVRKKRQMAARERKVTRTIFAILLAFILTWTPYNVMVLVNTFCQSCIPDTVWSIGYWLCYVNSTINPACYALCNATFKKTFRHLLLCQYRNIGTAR

[2] = target: T2, Muscarinic acetylcholine receptor M4 (Homo sapiens) (UniProt P08173); assay: Agonist activity at human Muscarinic acetylcholine receptor M4 expressed in HEK cells co-expressing Glosensor construct assessed as decrease in isoproterenol-induced cAMP accumulation at 10 uM to 0.3 nM incubated for 2 hrs in presence of isoproterenol and measured after 7 mins by Glosensor cAMP reagent/plate reader based luminescence assay relative to acetylcholine; format: functional, cell-based
T2 sequence (whole entry): T1 sequence (P08173 whole entry)

[3] = target: T3, Muscarinic acetylcholine receptor M2 (Homo sapiens, UniProt P08172); assay: (§1) Agonist activity at human Muscarinic acetylcholine receptor M2 expressed in HEK cells co-expressing Glosensor construct assessed as decrease in isoproterenol-induced cAMP accumulation incubated for 7 mins in presence of isoproterenol by Glosensor cAMP reagent/plate reader based luminescence assay; format: cell-based
T3 sequence (P08172 whole entry): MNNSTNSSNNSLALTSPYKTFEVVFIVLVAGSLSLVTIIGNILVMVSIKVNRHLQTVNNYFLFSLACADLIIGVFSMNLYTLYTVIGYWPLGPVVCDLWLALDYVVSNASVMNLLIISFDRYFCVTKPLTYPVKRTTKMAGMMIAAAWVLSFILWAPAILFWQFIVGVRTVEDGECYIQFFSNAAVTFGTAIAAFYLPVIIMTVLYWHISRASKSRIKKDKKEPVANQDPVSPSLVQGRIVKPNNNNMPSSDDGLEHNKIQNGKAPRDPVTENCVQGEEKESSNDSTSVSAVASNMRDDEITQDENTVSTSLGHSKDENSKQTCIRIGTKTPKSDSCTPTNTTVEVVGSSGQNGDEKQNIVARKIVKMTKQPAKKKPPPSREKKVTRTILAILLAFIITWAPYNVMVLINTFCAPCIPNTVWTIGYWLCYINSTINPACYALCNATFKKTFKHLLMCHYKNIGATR

[4] = target: T2, Muscarinic acetylcholine receptor M4 (Homo sapiens); assay: (§2) Positive allosteric modulatory activity at human Muscarinic acetylcholine receptor M4 expressed in HEK cells co-expressing Glosensor construct assessed as as increase in acteylcholine-induced cAMP accumulation at 10 uM to 0.3 nM incubated for 7 mins in presence of isoproterenol/acetylcholine by Glosensor cAMP reagent/plate reader based luminescence assay relative to acetylcholine; format: functional, cell-based
[5] = target: T1, Muscarinic acetylcholine receptor M4; assay: as §2, with “accumulation” for “accumulation at 10 uM to 0.3 nM”, “assay” for “assay relative to acetylcholine”; format: functional, cell-based
[6] = target: T3, Muscarinic acetylcholine receptor M2; assay: as §1, with “accumulation at 10 uM to 0.3 nM” for “accumulation”, “assay relative to acetylcholine” for “assay”; format: cell-based
[7] = tested on: MDR1; assay: Efflux ratio of permeability across basolateral to apical over apical to basolateral in dog MDCK cells transfected with MDR1 gene; format: ADME, cell-based, Canis lupus familiaris
[8] = tested on: mouse BCRP; assay: Efflux ratio of permeability across basolateral to apical over apical to basolateral in Doxycycline induced dog MDCK cells transfected with mouse BCRP; format: ADME, cell-based, Canis lupus familiaris

EC50 [1] [nM]	Emax [2] [%]	Structure (SMILES)	EC50 [5] [nM]	further results
2510	94	COc1cccnc1C1CCN(C2CCCN(c3nsnc3OC)CC2)CC1 (stereo not drawn)		
9	90	CCOC(=O)N1CCC2(CC(N3CCC(c4ncccc4OC)CC3)C2)C1 (stereo not drawn)		EC50 ([3]; read-out: EC50): > 10000 nM
23	82	CCOC(=O)N1CCC(CN2CCC(c3ncccc3OC)CC2)CC1		EC50 [3]: Not Active
> 2740		COc1cccnc1C1CCN(C2CCCN(c3nc(C)cs3)CC2)CC1 (stereo not drawn)	> 10000	
> 10000		CCNS(=O)(=O)N1CCCC(N2CCC(c3ncccc3OC)CC2)CC1 (stereo not drawn)		
> 9250		COc1cccnc1C1CCN(C2CCCN(C(=O)OC(C)C)CC2)CC1 (stereo not drawn)		
470	107	COc1cccnc1C1CCN(C2CCCN(c3nsnc3C)CC2)CC1 (stereo not drawn)		
20	109	COc1cccnc1C1CCN(C2CCCN(c3cnsn3)CC2)CC1 (stereo not drawn)		
11	99 to 99.1	CCOC(=O)N1CCCC(N2CCC(c3ncccc3OC)CC2)CC1 (stereo not drawn)		EC50 ([3]; read-out: EC50): 2520 nM; Emax at 7 min [6]: 83%
> 5990		CCNC(=O)N1CCCC(N2CCC(c3ncccc3OC)CC2)CC1 (stereo not drawn)		
> 9930		COc1cccnc1C1CCN(C2CCCN(C(=O)OCC(C)C)CC2)CC1 (stereo not drawn)		
> 8880		CCCC(=O)N1CCCC(N2CCC(c3ncccc3OC)CC2)CC1 (stereo not drawn)		

Further lines, the molecule ahead of its results:

Structure (SMILES)	EC50 [1] [nM]	Emax [2] [%]	EC50 [5] [nM]	further results
CCCCCCOc1nsnc1C1=CCCN(C)C1				Emax [4]: 100%
COc1cccnc1C1CCN(C2CCCN(c3cnccn3)CC2)CC1 (stereo not drawn)	16	96.8	25	Emax [4]: 95.9%; EC50 ([3]; read-out: EC50): 250 nM; Emax at 7 min [6]: 104%
COc1cccnc1C1CCN(C2CCCN(c3nccnc3C)CC2)CC1 (stereo not drawn)	3550	120	3410	
COc1cccnc1C1CCN(C2CCCN(c3ccccn3)CC2)CC1 (stereo not drawn)			> 10000	
COc1cccnc1C1CCN(C2CCCN(c3nccs3)CC2)CC1 (stereo not drawn)	> 10000		> 10000	
CCOC(=O)N1CCC2(CC(N3C[C@@H]4[C@H](C3)[C@@H]4c3nccn3-c3ccccc3)C2)C1 (stereo partly drawn)	3	99		EC50 ([3]; read-out: EC50): 5160 nM; Emax at 7 min [6]: 100%
COc1cccnc1C1CCN(C2CCCN(c3cccnc3)CC2)CC1 (stereo not drawn)			10000	Emax [4]: 80%
O=C1CCCN1CC#CCN1CCCC1 [OXOTREMORINE]		94.4	9	Emax [4]: 90.7%
COc1cccnc1C1CCN(C2CCCN(c3ncns3)CC2)CC1 (stereo not drawn)	1100	101		
COc1cccnc1C1CCN(CC2CCN(c3cnccn3)CC2)CC1	296	78		efflux ratio [7]: 3.89; EC50 ([3]; read-out: EC50): > 8830 nM; efflux ratio [8]: 1.62; Emax at 7 min [6]: 102%
c1ccc(-n2ccnc2[C@@H]2[C@@H]3CN(C4CC5(CCN(c6cnccn6)C5)C4)C[C@@H]32)cc1 (stereo partly drawn)	7	83.8		EC50 ([3]; read-out: EC50): 420 nM; Emax at 7 min [6]: 79.4%
COc1cccnc1C1CCN(C2CCCN(c3cncc(C)n3)CC2)CC1 (stereo not drawn)	9830	100	> 10000	
COc1cccnc1C1CCN(C2CCCN(c3cccnn3)CC2)CC1 (stereo not drawn)			> 10000	
COc1cccnc1C1CCN(C2CCCN(c3cncnc3)CC2)CC1 (stereo not drawn)			> 10000	
COc1cccnc1C1CCN(C2CCCN(c3ccncc3)CC2)CC1 (stereo not drawn)	> 10000		> 10000	
COc1cccnc1C1CCN(C2CCCN(c3ncccn3)CC2)CC1 (stereo not drawn)			> 10000	
COc1cccnc1C1CCN(C2CC3(CCN(c4cnccn4)C3)C2)CC1 (stereo not drawn)	228	100		EC50 ([3]; read-out: EC50): > 7350 nM; Emax at 7 min [6]: 100%
COc1cccnc1C1CCN(C2CCCN(c3cnc(C)cn3)CC2)CC1 (stereo not drawn)	> 4160	51		
COc1cccnc1C1CCN(C2CCCN(c3nncs3)CC2)CC1 (stereo not drawn)	> 10000		> 10000	
